Results taken from patent publication US20130156753A1 (UNIVERSITY OF ROCHESTER, priority 2010, published 2013).

Legend:
HDAC5 nuclear export = experiment: PE-induced HDAC5 nuclear export in neonatal rat ventricular cardiomyocytes (NRVMs); type: cell-based
Description: A, B, Cos7 cells were co-transfected with expression vectors encoding GFP-tagged HDAC5 (GFP-HDAC5) and constitutively active protein kinases as indicated, and then exposed to phorbol-12-myristate-13-acetate (PMA, […]) for 3 hours. […] A-F, The cells were fixed and the subcellular localization of GFP-HDAC5 was visualized by fluorescence microscopy.
(§1) The cells were fixed and GFP-HDAC5 localization was analyzed by fluorescence microscopy. α-actinin was detected by immunofluorescence using an antibody against α-actinin and a fluorescein-conjugated secondary antibody. The nuclei were stained with DAPI.
as §1, with “DAPI. B, PKA expression in cell lysates were determined by Western blot using PKA antibody.” for “DAPI.”
The cells were fixed and endogenous HDAC5 localization was analyzed by fluorescence microscopy. HDAC5 and α-actinin was detected by immunocytochemistry with antibody against HDAC5 and α-actinin.
The cells were fixed and GFP-HDAC5 subcellular localization was analyzed by fluorescence microscopy and stained with an α-actinin antibody and DAPI.
Cos7 cells were grown in Dulbecco's Modified Eagle's Medium (DMEM) supplemented with fetal bovine serum (10%), 1-glutamine and penicillin/streptomycin. Primary cultures of neonatal rat cardiac ventricular myocytes (NRVMs) from 1- to 2-day-old Sprague-Dawley rats (Charles River Laboratories) were prepared. In brief, NRVMs were dispersed from the ventricles by digestion with collagenase type II (Worthington). Cells were cultured in Dulbecco's modified Eagle's medium (DMEM) supplemented with 1,000 mg/L D-glucose, L-glutamine, and 110 mg/L sodium pyruvate (GIBCO), fetal bovine serum (10%), and penicillin/streptomycin at 37° C. in a 5% CO2 humidified atmosphere for 2-3 days. For inducer or inhibitor studies, cells were pretreated with various inducers or inhibitors for 30 min in serum-free medium. Primary cultures of adult rat cardiomyocytes were prepared from 200-250g male Sprague-Dawley rats. Briefly, rats were anesthetized, hearts excised and placed in Krebs buffer and perfused and digested with endotoxin-free collagenase II (Worthington). This protocol typically yielded approximately 4×10^6 cells per heart, with ˜85% surviving, rod-shaped Ca2+-tolerant cells. Myocytes were allowed to attach to 20 μg/ml laminin coated plates in Modified Eagle Medium (MEM) containing 2.5% FBS, 25 mmol/L HEPES, 5 mmol/L taurine, 2 mmol/L carnitine, 2 mmol/L creatinine, 100 IU/ml penicillin, and 100 μg/ml streptomycin for 2 hrs before replacing with serum-free MEM containing 25 mmol/L HEPES, 5 mmol/L taurine, 2 mmol/L carnitine, 2 mmol/L creatinine, 100 IU/ml penicillin, and 100 μg/ml streptomycin.
Adenoviruses encoding Flag-tagged HDAC5 wild-type (WT), GFP-tagged HDAC5-WT, and YFP-tagged HDAC7-WT were generated as described previously (Ha C H, et al. (2008) Protein Kinase D-dependent Phosphorylation and Nuclear Export of Histone Deacetylase 5 Mediates Vascular Endothelial Growth Factor-induced Gene Expression and Angiogenesis. J Biol Chem 283(21):14590-14599; Ha C H et al. (2008) VEGF stimulates HDAC7 phosphorylation and cytoplasmic accumulation modulating matrix metalloproteinase expression and angiogenesis. Arterioscler Thromb Vasc Biol 28(10):1782-1788). Adenovirus expressing GFP-tagged HDAC5-S280A mutant, GFP-tagged HDAC5-S280D mutant and Flag-tagged HDAC5-S280A mutant were generated by using ViraPower Adenoviral Expression System (Invitrogen) according to the manufacturer's protocol. Adenovirus containing β-galactosidase (LacZ) or GFP was used as a control. […]

[1] = system: MEF2 transcriptional activity; experiment: 3xMEF2-luciferase reporter assay in NRVMs; type: cell-based, rat; settings: PE 24 hours
Description: The mRNA was extracted from the cell lysates and then RT-PCR with the primers for ANF, β-MHC, α-SMA, and GADPH (internal control) was performed. *, p<0.05 versus PE+Ad-GFP; #, p<0.05 versus PE+GFP-HDAC5-WT, n=4.
To assess MEF2 and CREB transcriptional activation, an adenovirus was used that encoded a 3×MEF2-dependent reporter gene in which three tandem repeats of MEF2 sites were located upstream of the thymidine kinase gene promoter and plasmid encoding CREB-dependent reporter gene. NRVMs or Cos7 cells cultured in 24-well were co-transfected with 3×MEF2 or CREB luciferase reporter gene and adenovirus encoding LacZ or GFP-HDAC5-WT, GFP-HDAC5-S280A mutant and GFP-HDAC5-S280D mutant. […] The luciferase activities in cell lysates were determined using the Dual-Luciferase Reporter Assay kit (Promega) and Wallac 1420 multi-label counter (PerkinElmer) as described previously (4, 5).

CCCC(=O)Nc1ncnc2c1ncn2[C@@H]1O[C@@H]2COP(=O)(O)O[C@H]2[C@H]1OC(=O)CCC [cAMP, Dibutyryl-cAMP]
HDAC5 translocation from nucleus to cytoplasm after PE (HDAC5 nuclear export; NRVMs with GFP-HDAC5-WT, cAMP 30 min, PE 24 hours): prevented from translocating from the nucleus to the cytoplasm | PE-induced nuclear export of GFP-HDAC5 S280A (HDAC5 nuclear export; NRVMs, S280A mutant, cAMP 500 μM or forskolin 10 μM 30 min, PE 3 hours): resistant to PKA inhibition | PE-stimulated HDAC5 nuclear export (HDAC5 nuclear export; NRVMs, adenoviral GFP-HDAC5, 30 min pretreatment, PE 10 μM 3 hours): markedly inhibited PE-stimulated HDAC5 nuclear export | PE-induced endogenous HDAC5 nuclear export (HDAC5 nuclear export; NRVMs, endogenous HDAC5, cAMP 500 μM 30 min, PE 10 μM 3 hours): same inhibitory effect | decrease in MEF2 transcriptional activation with HDAC5-S280A ([1]; NRVMs co-infected with adenoviral GFP-HDAC5-S280A): abolished the decrease in MEF2 transcriptional activation by cAMP | PE-stimulated MEF2 transcriptional activity ([1]; NRVMs with GFP alone or GFP-HDAC5-WT, 30 min pretreatment): significantly inhibited PE-stimulated MEF2 transcriptional activity
